In ChEMBL document CHEMBL4138135, “Optimization of physicochemical properties for 4-anilinoquinazoline inhibitors of trypanosome proliferation” (Eur J Med Chem, 2017):

Columns and labels:
[1] = Distribution coefficient, log D of the compound at pH 7.4; format: physicochemical; conditions: octanol/water
[2] = Lipophilicity, log P of the compound; format: physicochemical; conditions: octanol/water

O=C(CN1CCOCC1)Nc1ccc2ncnc(Nc3ccc(OCc4cccc(F)c4)c(Cl)c3)c2c1
logD ([1]; read-out: logD): 4.5
logP ([2]; read-out: logP): 4.7

c1cc(-c2ccc3ncnc(Nc4cccnn4)c3c2)cc(N2CCOCC2)c1
logD ([1]; read-out: logD): 3
logP ([2]; read-out: logP): 3.4

Cc1nnc(Nc2ncnc3ccc(-c4cccc(N5CCOCC5)c4)cc23)nc1C
logD ([1]; read-out: logD): 2.8
logP ([2]; read-out: logP): 3

c1cnc(Nc2ncnc3ccc(-c4nccc(N5CCOCC5)n4)cc23)nc1
logD ([1]; read-out: logD): 2
logP ([2]; read-out: logP): 2.9

c1cc(Nc2ncnc3ccc(-c4ccnc(N5CCOCC5)n4)cc23)ccn1
logD [1]: 3.8
logP [2]: 2.9

CCn1nccc1Nc1ncnc2ccc(-c3cccc(N4CCOCC4)c3)cc12
logD ([1]; read-out: logD): 3.2
logP ([2]; read-out: logP): 3.9

c1cc(-c2ccc3ncnc(Nc4cncs4)c3c2)cc(N2CCOCC2)c1
logP ([2]; read-out: logP): 3.8

Cc1cnc(Nc2ncnc3ccc(-c4cccc(N5CCOCC5)c4)cc23)s1
logP ([2]; read-out: logP): 5

O=c1nc(Nc2ncnc3ccc(-c4cccc(N5CCOCC5)c4)cc23)c(F)c[nH]1
logD ([1]; read-out: logD): 2.2
logP ([2]; read-out: logP): 2.7

c1cc(-c2ccc3ncnc(Nc4ccnnc4)c3c2)cc(N2CCOCC2)c1
logD [1]: 3.1
logP [2]: 2.8

c1cc(-c2ccc3ncnc(Nc4nccnn4)c3c2)cc(N2CCOCC2)c1
logP ([2]; read-out: logP): 2.8

Fc1cccc(COc2ccc(Nc3ncnc4ccc(-c5nnc(N6CCOCC6)[nH]5)cc34)cc2Cl)c1
logP ([2]; read-out: logP): 5.3

c1cc(-c2ccc3ncnc(Nc4nccs4)c3c2)cc(N2CCOCC2)c1
logP ([2]; read-out: logP): 4.3

COc1cnc(Nc2ncnc3ccc(-c4cccc(N5CCOCC5)c4)cc23)cn1
logD ([1]; read-out: logD): 3.8
logP ([2]; read-out: logP): 3.6

c1cncc(Nc2ncnc3ccc(-c4cccc(N5CCOCC5)c4)cc23)c1
logD ([1]; read-out: logD): 3.9
logP ([2]; read-out: logP): 3.8

Cc1cnnc(Nc2ncnc3ccc(-c4cccc(N5CCOCC5)c4)cc23)c1
logP ([2]; read-out: logP): 3.9

c1cc(-c2ccc3ncnc(Nc4ncco4)c3c2)cc(N2CCOCC2)c1
logP ([2]; read-out: logP): 3.6

O=c1nc(Nc2ncnc3ccc(-c4cccc(N5CCOCC5)c4)cc23)cc[nH]1
logP ([2]; read-out: logP): 2.5

c1cnc(Nc2ncnc3ccc(-c4cccc(N5CCOCC5)c4)cc23)nc1
logD ([1]; read-out: logD): 2.5
logP ([2]; read-out: logP): 3.8

Fc1cccc(COc2ccc(Nc3ncnc4ccc(-c5nccc(N6CCOCC6)n5)cc34)cc2Cl)c1
logP ([2]; read-out: logP): 6.5

c1cnc(Nc2ncnc3ccc(-c4ccnc(N5CCOCC5)n4)cc23)nc1
logD ([1]; read-out: logD): 2.5
logP ([2]; read-out: logP): 2.9

c1cc(-c2ccc3ncnc(Nc4cnccn4)c3c2)cc(N2CCOCC2)c1
logD ([1]; read-out: logD): 3.1
logP ([2]; read-out: logP): 3.2

c1cc(Nc2ncnc3ccc(-c4nccc(N5CCOCC5)n4)cc23)ccn1
logD [1]: 3.4
logP [2]: 3

COc1ccc(Nc2ncnc3ccc(-c4cccc(N5CCOCC5)c4)cc23)cc1Cl
logP ([2]; read-out: logP): 5.4

c1ccc(Nc2ncnc3ccc(-c4cccc(N5CCOCC5)c4)cc23)nc1
logD ([1]; read-out: logD): 3.9
logP ([2]; read-out: logP): 4.4

Fc1cccc(COc2ccc(Nc3ncnc4ccc(-n5nncc5CN5CCOCC5)cc34)cc2Cl)c1
logP ([2]; read-out: logP): 5.1

c1cc(-c2ccc3ncnc(Nc4nncs4)c3c2)cc(N2CCOCC2)c1
logP ([2]; read-out: logP): 3.5

c1cc(-c2ccc3ncnc(Nc4cncnc4)c3c2)cc(N2CCOCC2)c1
logD ([1]; read-out: logD): 3.2
logP ([2]; read-out: logP): 3.1

Nc1cccnc1Nc1ncnc2ccc(-c3cccc(N4CCOCC4)c3)cc12
logD ([1]; read-out: logD): 2.8
logP ([2]; read-out: logP): 3.5

c1cc(-c2ccc3ncnc(Nc4ccncn4)c3c2)cc(N2CCOCC2)c1
logD ([1]; read-out: logD): 3.1
logP ([2]; read-out: logP): 3.7

Fc1cccc(COc2ccc(Nc3ncnc4ccc(-c5ccnc(N6CCOCC6)n5)cc34)cc2Cl)c1
logP ([2]; read-out: logP): 6.5

Cc1ccnc(Nc2ncnc3ccc(-c4cccc(N5CCOCC5)c4)cc23)n1
logD ([1]; read-out: logD): 2.9
logP ([2]; read-out: logP): 3.9

Nc1ncccc1Nc1ncnc2ccc(-c3cccc(N4CCOCC4)c3)cc12
logD ([1]; read-out: logD): 2.9
logP ([2]; read-out: logP): 3.5

CC(=O)Nc1cccnc1Nc1ncnc2ccc(-c3cccc(N4CCOCC4)c3)cc12
logD ([1]; read-out: logD): 3.2
logP ([2]; read-out: logP): 3.6

c1cc(-c2ccc3ncnc(Nc4ccncc4)c3c2)cc(N2CCOCC2)c1
logD ([1]; read-out: logD): 4.1
logP ([2]; read-out: logP): 3.8

Cc1cc(Nc2ncnc3ccc(-c4cccc(N5CCOCC5)c4)cc23)on1
logP ([2]; read-out: logP): 3.6
